Converted amounts (≈) assume the structure as drawn.
Experiments:
B. subtilis 168 [1] = experiment: fitness (endpoint OD595 vs no drug) (fraction); higher = more growth
Summary of the method: (§1)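 Background-subtracted growth curves were the basis for fitness, taken as the optical density at entry into stationary phase over the robust mean of no-drug control wells. A cap of 1 was applied. The curves came from OD595 readings every 30 min for 14 h at 37 °C, in 384-well plates seeded at OD595 0.01 with 30 µl, or 55 µl for S. pneumoniae.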

S. aureus DSM 20231 [2] = experiment: as above
Summary of the method: as §1

S. pneumoniae D39V [3] = experiment: as above
Summary of the method: as §1

S. aureus Newman [4] = experiment: as above
Summary of the method: as §1

B. subtilis 168 [5] = system: B. subtilis 168
S. aureus DSM 20231 [6] = system: S. aureus DSM 20231
S. pneumoniae D39V [7] = system: S. pneumoniae D39V
S. aureus Newman [8] = system: S. aureus Newman

CN(C)[C@@H]1C(O)=C(C(N)=O)C(=O)[C@@]2(O)C(O)=C3C(=O)c4c(O)ccc(Cl)c4[C@@](C)(O)[C@H]3C[C@@H]12 [Chlortetracycline]
fitness
Conditions | 0.012 µg/mL | 0.0238 µg/mL | 0.024 µg/mL | 0.0475 µg/mL | 0.048 µg/mL | 0.095 µg/mL | 0.19 µg/mL
B. subtilis 168 [1] | – | – | – | 0.895 | – | 0.8 | 0.524
S. aureus DSM 20231 [2] | 0.793 | – | 0.441 | – | 0.073 | – | –
S. aureus Newman [4] | 0.683 | 0.237 | 0.402 | 0.0993 | 0.0667 | 0.0061 | –
S. pneumoniae D39V [3] | 0.857 | – | 0.703 | – | 0.526 | – | –

Conditions | MIC [µg/mL]
B. subtilis 168 [5] | 0.4 (≈ 0.835 µM)
S. aureus DSM 20231 [6] | 0.15 (≈ 0.313 µM)
S. aureus Newman [8] | 0.095 (≈ 0.198 µM)
S. pneumoniae D39V [7] | 1.5 (≈ 3.13 µM)

COc1ccc(C[C@H](N)C(=O)N[C@H]2[C@@H](O)[C@H](n3cnc4c(N(C)C)ncnc43)O[C@@H]2CO)cc1 [Puromycin]
fitness
Conditions | 0.39 µg/mL | 0.78 µg/mL | 1 µg/mL | 1.56 µg/mL | 2 µg/mL | 4 µg/mL
B. subtilis 168 [1] | 0.931 | 0.929 | – | 0.94 | – | –
S. aureus DSM 20231 [2] | ≥ 1 | ≥ 1 | – | ≥ 1 | – | –
S. aureus Newman [4] | 0.985 | 0.993 | – | ≥ 1 | – | –
S. pneumoniae D39V [3] | – | – | ≥ 1 | – | 0.977 | 0.76

Conditions | MIC [µg/mL]
B. subtilis 168 [5] | 1.56 (≈ 3.31 µM)
S. aureus DSM 20231 [6] | 1.8 (≈ 3.82 µM)
S. aureus Newman [8] | 1.8 (≈ 3.82 µM)
S. pneumoniae D39V [7] | 12.5 (≈ 26.5 µM)

COc1cccc2c1C(=O)c1c(O)c3c(c(O)c1C2=O)C[C@@](O)(C(=O)CO)C[C@@H]3O[C@H]1C[C@H](N)[C@H](O)[C@H](C)O1 [Doxorubicin]
fitness
Conditions | 0.25 µg/mL | 0.5 µg/mL | 0.625 µg/mL | 1 µg/mL | 1.25 µg/mL | 2.5 µg/mL
B. subtilis 168 [1] | – | – | 0.946 | – | 0.918 | 0.816
S. aureus DSM 20231 [2] | – | – | 0.967 | – | 0.907 | 0.827
S. aureus Newman [4] | – | – | 0.896 | – | 0.791 | 0.68
S. pneumoniae D39V [3] | 0.86 | 0.903 | – | 0.781 | – | –

Conditions | MIC [µg/mL]
B. subtilis 168 [5] | 5 (≈ 9.2 µM)
S. aureus DSM 20231 [6] | 2.78 (≈ 5.11 µM)
S. aureus Newman [8] | 2.78 (≈ 5.11 µM)
S. pneumoniae D39V [7] | 1.2 (≈ 2.21 µM)

C[C@@H]1O[C@@H]1P(=O)(O)O [Fosfomycin]
Conditions | fitness
B. subtilis 168 [1], 1.562 µg/mL | 0.712
B. subtilis 168 [1], 3.124 µg/mL | 0.594
B. subtilis 168 [1], 6.248 µg/mL | 0.422
S. aureus DSM 20231 [2], 0.781 µg/mL | 0.875
S. aureus DSM 20231 [2], 1.562 µg/mL | 0.693
S. aureus DSM 20231 [2], 3.124 µg/mL | 0.535
S. aureus Newman [4], 0.781 µg/mL | 0.686
S. aureus Newman [4], 1.562 µg/mL | 0.485
S. aureus Newman [4], 3.124 µg/mL | 0.123
S. pneumoniae D39V [3], 1.25 µg/mL | 0.966
S. pneumoniae D39V [3], 2.5 µg/mL | 0.895
S. pneumoniae D39V [3], 5 µg/mL | 0.716

Conditions | MIC [µg/mL]
B. subtilis 168 [5] | 12.5 (≈ 90.5 µM)
S. aureus DSM 20231 [6] | 3.5 (≈ 25.4 µM)
S. aureus Newman [8] | 3.5 (≈ 25.4 µM)
S. pneumoniae D39V [7] | 6.25 (≈ 45.3 µM)

Cc1ncc([N+](=O)[O-])n1CCO [Metronidazole]
fitness
Conditions | 0.625 µg/mL | 0.781 µg/mL | 1.25 µg/mL | 1.562 µg/mL | 2.5 µg/mL | 3.124 µg/mL | 5 µg/mL
B. subtilis 168 [1] | 0.955 | – | 0.946 | – | 0.94 | – | –
S. aureus DSM 20231 [2] | ≥ 1 | – | ≥ 1 | – | ≥ 1 | – | –
S. aureus Newman [4] | ≥ 1 | ≥ 1 | ≥ 1 | ≥ 1 | ≥ 1 | 0.999 | –
S. pneumoniae D39V [3] | – | – | ≥ 1 | – | ≥ 1 | – | 0.997

Conditions | MIC [µg/mL]
B. subtilis 168 [5] | 5 (≈ 29.2 µM)
S. aureus DSM 20231 [6] | 3 (≈ 17.5 µM)
S. aureus Newman [8] | 3 (≈ 17.5 µM)
S. pneumoniae D39V [7] | 10 (≈ 58.4 µM)

Source: the supplement of paper PMC10627819
